Assay results reported in ChEMBL document CHEMBL5346883, “Discovery and pharmacological characterization of a novel benzimidazole TRPV4 antagonist with cyanocyclobutyl moiety” (Eur J Med Chem, 2023).

Legend:
[1] = target: T1, Transient receptor potential cation channel subfamily V member 4 (Homo sapiens, UniProt Q9HBA0); experiment: Antagonist activity at TRPV4 (unknown origin) expressed in Flp-In-CHO cells assessed as inhibition of GSK1016790A induced Ca2+ influx by calcium imaging method; assay type: cell-based
T1 sequence (Q9HBA0 whole entry): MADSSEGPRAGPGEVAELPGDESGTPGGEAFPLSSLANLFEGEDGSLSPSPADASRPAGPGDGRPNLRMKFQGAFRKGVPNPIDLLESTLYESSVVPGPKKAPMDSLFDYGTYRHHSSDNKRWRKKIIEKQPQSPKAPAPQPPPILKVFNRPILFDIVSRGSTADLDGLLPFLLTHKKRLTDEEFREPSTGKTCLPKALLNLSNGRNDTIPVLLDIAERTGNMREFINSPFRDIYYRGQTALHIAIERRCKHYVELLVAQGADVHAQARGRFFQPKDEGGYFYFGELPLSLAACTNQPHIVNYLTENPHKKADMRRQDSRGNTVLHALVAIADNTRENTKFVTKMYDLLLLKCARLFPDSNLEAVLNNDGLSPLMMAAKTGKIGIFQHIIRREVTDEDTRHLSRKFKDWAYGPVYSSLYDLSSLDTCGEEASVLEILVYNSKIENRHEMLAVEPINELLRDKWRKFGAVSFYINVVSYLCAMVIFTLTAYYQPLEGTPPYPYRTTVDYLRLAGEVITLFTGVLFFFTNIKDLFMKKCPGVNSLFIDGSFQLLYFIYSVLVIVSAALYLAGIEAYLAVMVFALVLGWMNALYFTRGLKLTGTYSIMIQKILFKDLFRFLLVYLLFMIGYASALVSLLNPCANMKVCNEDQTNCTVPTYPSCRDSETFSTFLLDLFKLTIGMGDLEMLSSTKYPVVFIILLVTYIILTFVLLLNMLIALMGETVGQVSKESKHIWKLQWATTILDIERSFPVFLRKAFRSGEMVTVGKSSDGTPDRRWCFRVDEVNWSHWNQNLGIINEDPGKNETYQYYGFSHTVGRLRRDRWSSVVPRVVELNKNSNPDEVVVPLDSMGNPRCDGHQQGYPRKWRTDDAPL

Mus musculus [2] = experiment: Antiinflammatory activity in LPS-induced acute lung injury mouse model assessed as BALF protein concentration at 1 mg/kg, ip; assay type: functional
Mus musculus [3] = experiment: Antiinflammatory activity in LPS-induced acute lung injury mouse model assessed as pathological score at 1 mg/kg, ip by hematoxylin and eosin staining based analysis; assay type: functional
[4] = target: T1, Transient receptor potential cation channel subfamily V member 4; experiment: Antagonist activity at human TRPV4
[5] = Cytotoxicity against human HUVEC cells assessed as reduction in cell viability; assay type: toxicity, cell-based

Compound | IC50 [1] [nM] | Activity (Mus musculus [2]) | Activity (Mus musculus [3]) | IC50 [4] [nM] | CC50 [5] [nM]
CC(C)C[C@H](NC(=O)c1cc2ccccc2s1)C(=O)N1CCN(C(=O)[C@H](CO)NS(=O)(=O)c2ccc(Cl)cc2Cl)CC1 | 122 | – | – | – | –
Cc1c(C(=O)Nc2cccc(C(F)(F)F)c2)cc(-c2ccccc2)n1CCCN1CCOCC1 | 73.6 | 1.5 | 5.4 | 203 | –
CC(=O)Nc1c(Cl)c(Cl)cc2c1nc(NC(C)C)n2C1CCN(c2ccc(C3(C#N)CCCC3)cc2)CC1 | – | – | – | – | > 100000
CC(=O)Nc1c(Cl)c(Cl)cc2c1nc(NC(C)C)n2C1CCN(c2ccc(C3(C#N)CCC3)cc2)CC1 | – | – | – | – | > 100000
